Laboratory results from US8106035B2, “25-SO2-substituted analogs of 1μ,25-dihydroxyvitamin D3” (Cytochroma Inc., priority 2002, dated 2012).

Assays:
[1] = target: T1, CYP24 (Homo sapiens, UniProt Q07973); assay: In vitro test for selective inhibition of CYP24 (standard protocol, ketoconazole control); type: biochemical; settings: in comparison to CYP27A1 and CYP27B1
T1 sequence (Q07973 36-514): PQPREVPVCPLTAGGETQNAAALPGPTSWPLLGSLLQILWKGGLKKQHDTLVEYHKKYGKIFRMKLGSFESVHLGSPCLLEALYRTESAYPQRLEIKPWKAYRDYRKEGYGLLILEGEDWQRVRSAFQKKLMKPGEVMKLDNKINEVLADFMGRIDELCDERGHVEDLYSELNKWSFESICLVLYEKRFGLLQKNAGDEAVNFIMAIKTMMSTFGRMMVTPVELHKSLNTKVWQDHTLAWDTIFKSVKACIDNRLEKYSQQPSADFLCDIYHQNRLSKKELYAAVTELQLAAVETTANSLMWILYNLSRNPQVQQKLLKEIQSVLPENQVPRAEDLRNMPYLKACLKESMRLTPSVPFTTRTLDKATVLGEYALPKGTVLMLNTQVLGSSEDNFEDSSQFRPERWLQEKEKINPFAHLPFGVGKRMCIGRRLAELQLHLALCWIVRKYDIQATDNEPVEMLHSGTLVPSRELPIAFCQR
Method: Selectively inhibiting the cytochrome P450 enzymatic pathway, through which 1α,25-dihydroxyvitamin D3 is catabolized (mainly via C-24 hydroxylation), is one important way to prolong the lifetime of this hormone, or analogs thereof. Therefore, the compounds of Formula I were tested in vitro, using a standard protocol, for their ability to inhibit specifically CYP24, an enzyme responsible for 24-hydroxylation of 1α,25-dihydroxyvitamin D3. Antimycotic ketoconazole, a drug used clinically for chemotherapy of human prostate cancer (Trachtenberg, J. et al. J. Urol. 1984, J32, 61-63), was used as a control standard for inhibition of CYP24.

[2] = Antiproliferative activity of the compound of Formula VI (test not specified); type: cell-based; settings: present invention
Description: The preparation of the compound of Formula VI was previously reported (Wang, Q. PhD Thesis, 2000, Johns Hopkins University). The ability of the compound of Formula VI to selectively modulate CYP24 activity has not been reported. […] Accordingly, the present invention is the first to find that the compound of Formula VI is useful in the methods of the invention.

[3] = system: SCC-25 cells; assay: [3H]-thymidine proliferation assay with SCC-25 cells; type: cell-based; settings: together with calcitriol; 1, 10, 50 nM compound; three days
Method: (§1) SCC-25 cells were treated with specified concentrations of calcitriol and compound Va for three days. Cells were then incubated with [^3H]-thymidine for 6 h at 37° C. in a humidified atmosphere containing 5% CO2. Plates were harvested and radioactivity measured. Dose response curves in the absence of Va, 1 nM Va, 10 nM Va and 50 nM Va are shown.
[^3H]-thymidine Proliferation Assay with SCC-25 Cells
• 1. Preparation of cell suspension • When SCC-25 cells are 70-80% confluent, aspirate media. Wash the cells with 1×PBS. Trypsinize with trypsin-EDTA from the plate, collect cells from the tissue culture flask, centrifuged (500×g, 5 min) and resuspended in media. • 2. Cell plating. • Count the cells and adjust the cell density to 10,000/ml. Add 200 μl per well in a 96 well plate. Incubate plate for 24 h at 37° C. in a humidified atmosphere plus 5% CO2. Aspirate used media and replace with 150 μl per well with media. • 3. Compound addition. • Add 25 μl of 1α,25(OH)2D3 (final concentration 10^−6 M, 10^−7 M, 10^−8 M, 10^−9 M, 10^−10 M, 10^−11 M) into each designated well. Add 25 μL of Substrate (final concentration 10^−7 M, 5×10^−8 M, 10^−8 M or 10^−9 M) into each designated well. Incubate plates for 3 days at 37° C. in a humidified atmosphere plus 5% CO2. • 4. ^3H-Thymidine incorporation. • Add ^3H-thymidine at 0.02 μCi per well and incubate at 37° C. in a humidified atmosphere plus 5% CO2 for 6 h. • 5. Plate Harvesting. • Aspirate all media and wash cells with 1×PBS. Trypsinize cells for 30 min at 37° C. in a humidified atmosphere plus 5% CO2. Harvest cells onto a 96 well filter plate (Millipore) using a Tomtec Cell Harvestor, according to manufacturers instructions. • 6. Scintillation Counting. • Add 25 μl of scintillation fluid per well. Count the plate using a scintillation counter. Results: See FIGS. 10-13.

[4] = system: normal human epidermal keratinocytes (NHEK); assay: Human epidermal keratinocyte proliferation (HEK) assay, [3H]-thymidine; type: cell-based; settings: together with calcitriol; 1, 10, 50 nM compound; three days
Method: as §1, with “NHEK” for “SCC-25 cells”, “18” for “6”
Human Epidermal Keratinocyte Proliferation (HEK) Assay
• 1. HEK cell media • Supplement KGM media with additional reagents provided in the bullet kit as per supplier's instructions. • Add calcium chloride to final concentration of 0.3 mM. • 2. Calcitriol dilutions
(iii) Procedure: • 2. Cell culture • Thaw one vial of HEK cells containing at least 500 K, and divide into 5 25 cm^2 flasks with 5 ml HEK cell media. 24 h later, remove media and replenish with 5 ml fresh media. Change media again 48 h later. • 3. Preparation of cell suspension • On the day of the assay, wash the monolayer of HEK cells once with 1×PBS buffer (provided in reagent pack) and then trypsinize for 5 min at 37° C. Add trypsin neutralizing solution (provided in reagent pack). Collect cells into tube, centrifuge cells (500×g, 5 min) and resuspend in HEK cell media. Count cells and adjust density to 150,000 cells/ml. Dilute cells further 1:30 with HEK cell media. • 2. Cell plating • Add 150 μl of cell suspension to appropriately labelled wells of a 96-well plate. Incubate plate for 48 h at 37° C. in a humidified atmosphere containing 5% CO2 for adherence of cells to wells. • 3. Compound addition • Add 25 μl of calcitriol (10^−6 to 10^−11 M, final) and add 25 μl of substrate (10^−7 to 10^−10 M, final) and incubate for 32 hours at 37° C. in a humidified atmosphere containing 5% CO2. • 4. Cell harvesting and counting • Add 0.2 μCi/well of [^3H]-thymidine in 20 μl of HEK cell media to each well. Incubate plates for 18 h at 37° C. in a humidified atmosphere containing 5% CO2. Aspirate media and wash with 1×PBS. Trypsinize cells for 30 min at 37° C. in a humidified atmosphere containing 5% CO2. Harvest cells onto filter plates using Tomtec cell harvester as per manufacturer's instructions. Add 25 μl scintillation fluid per well. Measure radioactivity using a scintillation counter. All values were normalized for background. Results; See FIGS. 1-4

[5] = system: MCF-7 cells; assay: [3H]-thymidine proliferation assay with MCF-7 cells; type: cell-based; settings: together with calcitriol; 1, 10, 50 nM compound; three days
Method: as §1, with “MCF-7” for “SCC-25”
[^3H]-thymidine Proliferation Assay with MCF-7 Cells
• 1. Preparation of cell suspension • When MCF-7 cells are 70-80% confluent, aspirate growth media. Wash the cells with 1×PBS. Trypsinize with trypsin-EDTA from the plate, collect cells from the tissue culture flask, centrifuged (500×g, 5 min) and resuspended in growth media. • 2. Cell plating. • Count the cells and adjust the cell density to 25, 000/ml. Add 200 μl per well in a 96 well plate. Incubate plate for 24 h at 37° C. in a humidified atmosphere plus 5% CO2. Aspirate used media and replace with […] per well with proliferation media. • 3. Substrate addition. • Add 25 μl of 1α,25(OH)2D3 (final concentration 10^−6 M, 10^−7 M, 10^−8 M, 10^−9 M, 10^−10 M, 10^−11 M) into each designated well. Add 25 μl of Substrate (final concentration 10^−7 M, 5×10^−8 M, 10^−8 M or 10^−9 M) into each designated well. Incubate plates for 3 days at 37° C. in a humidified atmosphere plus 5% CO2. • 4. ^3H-Thymidine incorporation. • Add ^3H-thymidine at 0.02 μCi per well and incubate at 37° C. in a humidified atmosphere plus 5% CO2 for 6 h. • 5. Plate Harvesting. • Aspirate all media and wash cells with 1×PBS. Trypsinize cells for 30 min at 37° C. in a humidified atmosphere plus 5% CO2. Harvest cells onto a 96 well filter plate (Millipore) using a Tomtec Cell Harvestor, according to manufacturers instructions. • 6. Scintillation Counting. • Add 25 μt of scintillation fluid per well. Count the plate using a scintillation counter. Results: See FIGS. 5-9.

Row | Structure (SMILES) | selective inhibition of CYP24 activity [1] | antiproliferative activity [2] | inhibition of SCC-25 cells ([3H]-thymidine incorporation) [3] | inhibition of NHEK ([3H]-thymidine incorporation) [4] | inhibition of MCF-7 cells ([3H]-thymidine incorporation) [5]
1 | C=C1/C(=C\C=C2/CCCC3(C)C(C(C)CCC4(S(=O)(=O)C(C)(C)C)CC4)=CCC23)CC(O)CC1O (centres unmarked) [Formula VI] | shows selective inhibition of CYP24 activity | does have antiproliferative activity |  |  | 
2 | C=C1/C(=C\C=C2/CCC[C@@]3(C)C2CC[C@@H]3[C@H](C)CCC2(S(=O)(=O)C(C)(C)C)CC2)C[C@@H](O)C[C@@H]1O (some centres unmarked) [IIa] |  |  | act to inhibit SCC-25 cells | act to inhibit normal human epidermal keratinocytes | 
3 | C=C1/C(=C\C=C2/CCC[C@]3(C)C([C@H](C)CCC(C)(C)S(=O)(=O)C(C)(C)C)=CCC23)C[C@@H](O)C[C@@H]1O (some centres unmarked) [IVa, 16-ene-24-dimethyl-25-SO2-TB1] |  |  | act to inhibit SCC-25 cells | act to inhibit normal human epidermal keratinocytes | act to inhibit MCF-7 cells
4 | C[C@H](C/C=C(\F)S(=O)(=O)C(C)(C)C)C1=CC[C@H]2/C(=C/C=C3C[C@@H](O)C[C@H](O)C3)CCC[C@]12C [Ia(xi)] |  |  |  |  | act to inhibit MCF-7 cells
5 | C=C1/C(=C\C=C2/CCC[C@]3(C)C([C@H](C)C/C=C(/F)S(=O)(=O)C(C)(C)C)=CC[C@@H]23)C[C@@H](O)C[C@@H]1O [Ib(v)] |  |  | act to inhibit SCC-25 cells | act to inhibit normal human epidermal keratinocytes | act to inhibit MCF-7 cells
6 | C=C1/C(=C\C=C2/CCC[C@]3(C)[C@@H]([C@H](C)CCCS(=O)(=O)c4ccc(F)cc4)CC[C@@H]23)C[C@@H](O)C[C@@H]1O [Va] |  |  | act to inhibit SCC-25 cells | act to inhibit normal human epidermal keratinocytes | act to inhibit MCF-7 cells
